The values below come from paper PMC8032764 (Scientific Reports, 2021).

The test system of data set [1] is male Lister Hooded rats. The experiment in a line: Diazepam-induced spatial learning impairment in the Morris water maze. It counts as in vivo, rat. The note with it: diazepam 6 mg/kg i.p. On the procedure: The current study used a modified version of the standard acquisition protocol, in which pre-trained rats had to learn to locate a new platform position during six trials on the test day, as described previously. Subjects were semi-randomly divided into treatment groups based on their performance on the last training day. A computer tracking system (HVS Image Ltd, UK) was used to analyse each rat’s swim path on-line.
Latency, pathlength and swim speed (Supplementary Fig. S2) were analysed with a one-factor ANOVA. For the probe trial, to determine whether each treatment group had learned the spatial position of the platform, within-subjects ANOVA was used to compare percent time spent in the platform quadrant with the left, right and opposite quadrants. All significant cases were followed by a post hoc Newman–Keuls test. In addition, a comparison between vehicle treated and diazepam-treated rats on the percent time spent in the platform quadrant was analysed using an unpaired t-test.

Data set [2] has as its system Wistar rats. Put plainly: Pentylenetetrazole (PTZ) test. As to conditions: positive control, 10 mg/kg i.p. 30 min prior to PTZ, p < 0.05. In kind it is in vivo, rat. On the procedure:
PTZ was prepared in 0.9% saline and was administered s.c. in a volume of 1 mL/kg. The positive control FG7142, a non-selective GABAA receptor NAM, was prepared in 0.3% Tween 80 v/v saline and was administered i.p. in a volume of 1 mL/kg. […] During this period the number of rats showing tonic convulsions was noted.
FG7142 was administered at 10 mg/kg 30 min prior to PTZ. The percent of rats in each dose group showing tonic convulsions was compared to the control group by the Pearson Chi-Square test.

For data set [3], the target named is human GABAA α5β3γ2 (Homo sapiens, UniProt P18507+P31644). Put plainly: Two-electrode voltage clamp in Xenopus oocytes, current induced by EC10 of GABA. It counts as cell-based. Also noted: expressed in transfected cells; host or cells: Xenopus laevis oocytes, cRNA injection. The protocol: Freshly prepared oocytes of maturation stage VI were bought from Ecocyte Bioscience (Castrop-Rauxel, Germany) and, after overnight delivery, plated into 96-well plates (Greiner no. 651101) for microinjection on a ROBOOCYTE R16 system (Multichannel Systems MCS GmbH, Reutlingen, Germany). Each oocyte was injected with roughly 50 nL of RNA solution. The solution for expressing receptors composed of the human α1, β2 and γ2 subunits contained 3 pg/nL of α1 and β2 RNA and 15 pg/nL of γ2 RNA. The solution for expressing human α2β3γ2 receptors contained 2.5 pg/nL of α2 and β3 RNA, 5 pg/nL of γ2 RNA and 10 pg/nL of GABARAP RNA. The solution for expressing human α3β3γ2 receptors contained 1.3 pg/nL of α3 and β3 RNA and 6.5 pg/nL of γ2 RNA. The solution for expressing human α5β3γ2 receptors contained 1.3 pg/nL of α5 and β3 RNA and 13 pg/nL of γ2 RNA. […] After the microinjection the oocytes were kept at 20 °C temperature until the electrophysiological experiment. Experiments were done 3 to 5 days later on the ROBOOCYTE instrument which employs the two-microelectrode voltage-clamp technique for membrane voltage control and current measurement. […] During current recording and compound testing the cell membrane was constantly clamped to − 80 mV. Current signals were recorded and stored on a PC-type computer using the ROBOOCYTE software.
(§1) During the microinjection and up to the electrophysiological experiment the oocytes were kept in a solution containing 88 mM NaCl, 1 mM KCl, 2.5 mM NaHCO3, 10 mM HEPES (AppliChem GmbH, Darmstadt, Germany), 0.82 MgSO4, 0.33 mM Ca(NO3)2, 0.33 mM CaCl2, 100 U/mL penicillin (GIBCO, ThermoFisher Scientific) and 100 µg/mL streptomycine (GIBCO, ThermoFisher Scientific). The pH was adjusted to 7.5. During the experiment the voltage-clamped oocyte was constantly superfused by a solution containing 90 mM NaCl, 1 mM KCl, 5 mM HEPES (AppliChem), 1 mM MgCl2 and 1 mM CaCl2 (pH 7.4). GABA and test compounds were added to this solution. GABA concentrations were chosen according to previously determined concentration–response relations for the different human GABAA receptor subunit combinations. Concentrations evoking approximately 10% of a maximal response were selected, i.e., 8 µM for α1β2γ2, 6 µM for α2β3γ2, 10 µM for α3β3γ2 and 5 µM for α5β3γ2. Solutions containing GABA or test compounds were freshly prepared at least every second day. […] Compounds were further diluted in DMSO and finally in extracellular saline to reach a DMSO concentration of 0.1%. The same amount of DMSO was added to the control solutions without test compounds.
During the experiment the solutions were fed into the well containing the voltage-clamped oocyte via Teflon tubings connected by electromagnetic valves which allowed rapid switching between different solutions (controlled by the ROBOCYTE software). Approximately 1–2 min after impaling an oocyte and switching to voltage-clamp mode GABA was applied for 90 s to record a control response. Thereafter the oocyte was washed with saline for 160 s followed by another 90 s GABA application. Then 30 s after the onset of the second GABA application the system switched to a solution containing GABA plus the test compound. Each oocyte was used for testing one concentration of a single test compound (for α5β3γ2: 1 nM: n = 8, 10 nM: n = 8, 100 nM: n = 7, 1000 nM: n = 7).
In this case each GABA application lasted 110 s and the rest period between the two GABA applications was 190 s long.
On each 96-well plate 3–6 oocytes were used for testing a known NAM at the BZD binding site, β-CCM (FG7106), as a positive control. […] Maximally effective concentrations of β-CCM were used for each subunit combination, i.e., 100 nM β-CCM for α1β2γ2, 300 nM for α2β3γ2 or α3β3γ2 and 1 µM for α5β3γ2.
Background: Two-electrode voltage clamp is typically applied to oocytes expressing channels or transporters.

The target in data set [4] is GABAA α1β3γ2. As to conditions: Table S4a, cited from earlier work.
The target of data set [5] is GABAA α2β3γ2. The note with it: Table S4a, cited from earlier work.
Data set [6] has as its target GABAA α3β3γ2. As to conditions: Table S4a, cited from earlier work.
Data set [7] addresses GABAA α5β3γ2. The note with it: cited from earlier work.
For data set [8], the system named is male F-344 rats. The experiment in a line: Social approach avoidance test. As to conditions: positive control, 3 mg/kg p.o., 30 min prior to testing.
Description: Experiments on social approach avoidance were performed as described previously by[41] and[14]. A tracking system (Ethovision, Noldus, The Netherlands) was used to analyse each rat’s pathway.
In data set [9] the test system is T1, human GABAA α2β3γ2.
T1 construct: expressed in transfected cells; host or cells: Xenopus laevis oocytes, cRNA injection
Put plainly: Two-electrode voltage clamp in Xenopus oocytes, current induced by EC10 of GABA. The note with it: 300 nM β-CCM; not shown. In kind it is cell-based. On the procedure:
Freshly prepared oocytes of maturation stage VI were bought from Ecocyte Bioscience (Castrop-Rauxel, Germany) and, after overnight delivery, plated into 96-well plates (Greiner no. 651101) for microinjection on a ROBOOCYTE R16 system (Multichannel Systems MCS GmbH, Reutlingen, Germany). Each oocyte was injected with roughly 50 nL of RNA solution. The solution for expressing receptors composed of the human α1, β2 and γ2 subunits contained 3 pg/nL of α1 and β2 RNA and 15 pg/nL of γ2 RNA. The solution for expressing human α2β3γ2 receptors contained 2.5 pg/nL of α2 and β3 RNA, 5 pg/nL of γ2 RNA and 10 pg/nL of GABARAP RNA. The solution for expressing human α3β3γ2 receptors contained 1.3 pg/nL of α3 and β3 RNA and 6.5 pg/nL of γ2 RNA. The solution for expressing human α5β3γ2 receptors contained 1.3 pg/nL of α5 and β3 RNA and 13 pg/nL of γ2 RNA. GABARAP was added to the α2β3γ2 subunit mixture since the expression of γ2 would be low otherwise, as indicated by a weak effect of β-CCM[60]. After the microinjection the oocytes were kept at 20 °C temperature until the electrophysiological experiment. Experiments were done 3 to 5 days later on the ROBOOCYTE instrument which employs the two-microelectrode voltage-clamp technique for membrane voltage control and current measurement. […] During current recording and compound testing the cell membrane was constantly clamped to − 80 mV. Current signals were recorded and stored on a PC-type computer using the ROBOOCYTE software.
as §1, with “compounds. […]” for “compounds.”

pKi: −log10 of the molar value. Read-outs that look alike come from different tables or passages of the source.

Sequence of human GABAA α5β3γ2 (P31644 32-462): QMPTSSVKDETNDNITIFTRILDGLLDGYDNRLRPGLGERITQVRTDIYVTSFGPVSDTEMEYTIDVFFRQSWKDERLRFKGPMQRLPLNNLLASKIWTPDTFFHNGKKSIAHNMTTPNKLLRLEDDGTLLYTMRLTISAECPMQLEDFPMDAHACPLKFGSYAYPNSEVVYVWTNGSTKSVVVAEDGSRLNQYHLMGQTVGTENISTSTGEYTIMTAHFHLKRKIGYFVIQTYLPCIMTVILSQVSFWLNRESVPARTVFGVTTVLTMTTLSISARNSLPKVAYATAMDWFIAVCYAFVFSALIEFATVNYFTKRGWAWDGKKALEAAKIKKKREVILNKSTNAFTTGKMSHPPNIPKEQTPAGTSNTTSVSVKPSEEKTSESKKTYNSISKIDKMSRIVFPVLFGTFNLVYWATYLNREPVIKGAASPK
Sequence of human GABAA α5β3γ2 (P28472 26-473 partner): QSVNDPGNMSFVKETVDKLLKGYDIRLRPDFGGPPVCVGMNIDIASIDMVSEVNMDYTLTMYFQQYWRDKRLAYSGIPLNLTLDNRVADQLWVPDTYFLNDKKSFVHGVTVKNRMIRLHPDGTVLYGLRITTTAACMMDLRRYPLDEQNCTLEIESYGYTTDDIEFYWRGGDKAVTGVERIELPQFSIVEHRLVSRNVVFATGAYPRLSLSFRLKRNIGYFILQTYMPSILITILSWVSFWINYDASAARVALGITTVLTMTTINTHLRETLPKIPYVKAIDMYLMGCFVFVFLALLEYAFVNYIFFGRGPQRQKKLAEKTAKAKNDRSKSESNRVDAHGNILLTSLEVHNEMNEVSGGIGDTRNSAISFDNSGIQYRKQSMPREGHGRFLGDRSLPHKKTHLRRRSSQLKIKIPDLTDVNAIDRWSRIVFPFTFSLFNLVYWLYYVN
Sequence of human GABAA α5β3γ2 (P18507 40-475): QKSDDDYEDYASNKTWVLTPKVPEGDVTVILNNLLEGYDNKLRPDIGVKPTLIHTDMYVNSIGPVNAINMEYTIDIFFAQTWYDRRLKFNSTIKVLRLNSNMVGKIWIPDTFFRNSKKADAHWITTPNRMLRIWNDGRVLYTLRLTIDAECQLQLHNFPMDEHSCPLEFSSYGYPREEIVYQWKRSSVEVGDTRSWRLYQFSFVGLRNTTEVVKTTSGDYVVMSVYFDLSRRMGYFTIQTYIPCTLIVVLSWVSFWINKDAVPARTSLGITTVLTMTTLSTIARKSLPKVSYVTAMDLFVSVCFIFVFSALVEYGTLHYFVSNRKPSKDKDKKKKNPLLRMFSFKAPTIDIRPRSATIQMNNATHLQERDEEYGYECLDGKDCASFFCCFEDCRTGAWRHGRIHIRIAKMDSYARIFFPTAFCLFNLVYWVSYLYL

Take `CN1C(=O)CN=C(c2ccccc2)c2cc(Cl)ccc21` [Diazepam, reference compound]: in data set [1], the “latency and pathlength to find the platform across six trials” value is “significantly increased the latency and pathlength”; the swim speed result is on record as “small but significant increase in swim speed”. Also, in [1] (30 min before test), the “probe trial, learning of the new platform position” value was “significantly disrupted learning of the new platform position”.
On to `CNC(=O)c1cc2c(cn1)[nH]c1ccccc12` [FG7142, N-Methyl-9H-pyrido[5,4-b]indole-3-carboxamide, reference compound], for which the “number of rats showing tonic convulsions” value in data set [2] is listed as “increased the number of rats showing tonic convulsions”.
`CCOC(=O)c1ncn2c1CN(C)C(=O)c1cc(F)ccc1-2` [Flumazenil, reference compound]: the “enhancement of the GABA-induced current” value in data set [3] (30 and 1000 nM, concentration-dependent) is “up to 28%”.
The term pKi denotes −log10 of the Ki, conventionally taken in molar units. Consider `CCOC(=O)c1ncn2c1[C@@H]1CCCN1C(=O)c1cc(OC)ccc1-2` [L-655,708], for which the pKi in [4] (ref Atack et al., 2006) was 7.15; in [5] (ref Atack et al., 2006), 7.32; in data set [6] (ref Atack et al., 2006), 7.51; in data set [7] (Table S4a, ref Atack et al., 2006, read-out: Ki α5β3γ2), 9.00; in data set [7] (discussion, no reference given, read-out: Ki at the GABAA-α5 receptor subtype), roughly 9.00.
For `COCc1ncn2c1CN(C)C(=O)c1cc(Cl)ccc1-2` [PWZ-029], the pKi in data set [4] (ref Savić et al., 2008) is 6.04; in data set [5] (ref Savić et al., 2008), less than 6.52; in data set [6] (ref Savić et al., 2008), less than 6.52; in data set [7] (Table S4a, ref Savić et al., 2008, read-out: Ki α5β3γ2), 7.52.
Regarding `CN1Cc2c(C(=O)OC(C)(C)C)ncn2-c2ccsc2C1=O` [Ro 19-4603, reference compound], the “time in the social compartment” value in [8] (p < 0.001) is recorded as “significantly decreased the time in the social compartment”. Further, in data set [8] (p < 0.05), the “time in the hidden area” value is reported as “increased the time in the hidden area”.
With `COC(=O)c1cc2c(cn1)[nH]c1ccccc12` [β-CCM, methyl beta-carboline-3-carboxylate, reference compound], the “inhibition of GABA response” value in [9] was 42%. Besides, the “reduction of the GABA-evoked current” value in [3] (maximally effective concentration, 1 µM β-CCM, data not shown) stood at 52%.
